Patent US20250100960A1, “NAPHTHALENE AND QUINOLINE ANALOGS AS RXFP1 AGONISTS” (BRISTOL-MYERS SQUIBB COMPANY, priority 2021, published 2025)

Tested on: not given
Assay: not given
Details: intravenous (IV) formulation; cited from earlier work

Row | Compound | first-phase pharmacokinetic half-life
1 | Serelaxin | 5.4 min

Target: T1, human RXFP1 (Homo sapiens, UniProt Q9HBX9)
T1 construct: expressed in transfected cells; host or cells: HEK293
T1 sequence (Q9HBX9 1-757): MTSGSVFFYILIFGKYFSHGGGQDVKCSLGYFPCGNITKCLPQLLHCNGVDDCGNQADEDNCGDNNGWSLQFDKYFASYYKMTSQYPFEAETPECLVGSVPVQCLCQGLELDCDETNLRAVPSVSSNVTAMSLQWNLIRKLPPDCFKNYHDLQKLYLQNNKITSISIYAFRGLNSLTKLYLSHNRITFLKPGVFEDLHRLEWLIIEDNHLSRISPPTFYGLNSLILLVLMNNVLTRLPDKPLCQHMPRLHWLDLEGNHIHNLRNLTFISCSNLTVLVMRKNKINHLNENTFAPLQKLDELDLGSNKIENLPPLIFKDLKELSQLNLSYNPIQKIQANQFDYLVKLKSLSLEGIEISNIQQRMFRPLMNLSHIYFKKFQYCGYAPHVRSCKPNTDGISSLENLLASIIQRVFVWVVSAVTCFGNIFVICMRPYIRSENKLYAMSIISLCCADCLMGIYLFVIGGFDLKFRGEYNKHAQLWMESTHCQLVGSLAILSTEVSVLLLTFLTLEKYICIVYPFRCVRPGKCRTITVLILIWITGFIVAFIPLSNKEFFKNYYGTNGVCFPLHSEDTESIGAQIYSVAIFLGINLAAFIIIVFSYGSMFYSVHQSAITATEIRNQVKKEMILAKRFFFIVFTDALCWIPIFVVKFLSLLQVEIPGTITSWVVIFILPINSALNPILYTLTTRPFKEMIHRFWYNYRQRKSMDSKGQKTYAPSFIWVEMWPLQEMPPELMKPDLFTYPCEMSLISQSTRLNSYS
Assay: hRXFP1 HEK293 cAMP assay
Type: cell-based
Details: HEK293 cells stably expressing human RXFP1; intracellular cAMP by HTRF; 30 min at room temperature
Procedure: RXFP1 Cyclic Adenosine Monophosphate (cAMP) Assays. Human embryonic kidney cells 293 (HEK293) cells and HEK293 cells stably expressing human RXFP1, were cultured in MEM medium supplemented with 10% qualified FBS, and 300 μg/ml hygromycin (Life Technologies). Cells were dissociated and suspended in assay buffer. The assay buffer was HBSS buffer (with calcium and magnesium) containing 20 mM HEPES, 0.05% BSA, and 0.5 mM IBMX. Cells (3000 cells per well, except 1500 cell per well for HEK293 cells stably expressing human RXFP1) were added to 384-well Proxiplates (Perkin-Elmer). Cells were immediately treated with test compounds in DMSO (2% final) at final concentrations in the range of 0.010 nM to 50 μM. Cells were incubated for 30 min at room temperature. The level of intracellular cAMP was determined using the HTRF HiRange cAMP assay reagent kit (Cisbio) according to manufacturer's instructions. Solutions of cryptate conjugated anti-cAMP and d2 fluorophore-labelled cAMP were made in a supplied lysis buffer separately. Upon completion of the reaction, the cells were lysed with equal volume of the d2-cAMP solution and anti-cAMP solution. After a 1 h room temperature incubation, time-resolved fluorescence intensity was measured using the Envision (Perkin-Elmer) at 400 nm excitation and dual emission at 590 nm and 665 nm. A calibration curve was constructed with an external cAMP standard at concentrations ranging from 2.7 μM to 0.1 μM by plotting the fluorescent intensity ratio from 665 nm emission to the intensity from the 590 nm emission against cAMP concentrations. The potency and activity of a compound to […] cAMP production was then determined by fitting to a 4-parametric logistic equation from a plot of cAMP level versus compound concentrations.
The examples disclosed below were tested in the human RXFP1 (hRXFP1) HEK293 cAMP assay described above and found to have agonist activity. Tables 1-3, lists EC50 values in the hRXFP1 HEK293 cAMP assay measured for the examples.

Row | Compound | EC50
2 | COc1ccc(N2CCCS2(=O)=O)cc1C(=O)Nc1cc2ccccc2cc1C(=O)Nc1ccc(F)c(C(F)(F)F)c1 [Example 11, 3-(5-(1,1-dioxidoisothiazolidin-2-yl)-2-methoxybenzamido)-N-(4-fluoro-3-(trifluoromethyl)-phenyl)-2-naphthamide] | 2000 nM
3 | COc1ccc(-c2cc(C(NC(=O)C3CCOCC3)C(=O)O)ccc2F)cc1C(=O)Nc1cc2cc(Br)c(Br)cc2cc1C(=O)Nc1ccc(F)c(C(F)(F)F)c1 (stereo not drawn) [Example 3, 2-(3′-((6,7-dibromo-3-((4-fluoro-3-(trifluoromethyl)phenyl)-carbamoyl)naphthalen-2-yl)carbamoyl)-6-fluoro-4′-methoxy-[1,1′-biphenyl]-3-yl)-2-(tetrahydro-2H-pyran-4-carboxamido)acetic acid] | 190 nM
4 | COc1ccc(C2=NOC3CC(CO)CC23)cc1C(=O)Nc1cc2ccccc2cc1C(=O)Nc1ccc(F)c(C(F)(F)F)c1 (single isomer, unassigned) [Example 13, N-(4-fluoro-3-(trifluoromethyl)phenyl)-3-(5-(5-(hydroxymethyl)-3a,5,6,6a-tetrahydro-4H-cyclopenta[d]isoxazol-3-yl)-2-methoxybenzamido)-2-naphthamide] | 320 nM
5 | COc1ccc(S(=O)(=O)CCCO)cc1C(=O)Nc1cc2ccccc2cc1C(=O)Nc1ccc(F)c(C(F)(F)F)c1 [Example 9, N-(4-fluoro-3-(trifluoromethyl)phenyl)-3-(5-((3-hydroxypropyl)sulfonyl)-2-methoxybenzamido)-2-naphthamide] | 4800 nM
6 | COc1ccc(-c2cc(C(=O)O)ccc2F)cc1C(=O)Nc1cc2ccccc2cc1C(=O)Nc1ccc(F)c(C(F)(F)F)c1 [Example 1, 6-fluoro-3′-((3-((4-fluoro-3-(trifluoromethyl)phenyl)carbamoyl)naphthalen-2-yl)carbamoyl)-4′-methoxy-[1,1′-biphenyl]-3-carboxylic acid] | 1100 nM
7 | COc1ccc(C2=NOC3CC(CO)CC23)cc1C(=O)Nc1cc2ccccc2cc1C(=O)Nc1ccc(F)c(C(F)(F)F)c1 (single isomer, unassigned) [Example 14, N-(4-fluoro-3-(trifluoromethyl)phenyl)-3-(5-(5-(hydroxymethyl)-3a,5,6,6a-tetrahydro-4H-cyclopenta[d]isoxazol-3-yl)-2-methoxybenzamido)-2-naphthamide] | 60 nM
8 | COc1ccc(-c2cc(C(NC(=O)C3CCOCC3)C(=O)O)ccc2F)cc1C(=O)Nc1cc2ccccc2cc1C(=O)Nc1ccc(F)c(C(F)(F)F)c1 (stereo not drawn) [Example 2, 2-(6-fluoro-3′-((3-((4-fluoro-3-(trifluoromethyl)phenyl)carbamoyl)naphthalen-2-yl)carbamoyl)-4′-methoxy-[1,1′-biphenyl]-3-yl)-2-(tetrahydro-2H-pyran-4-carboxamido)acetic acid] | 4.2 nM
9 | COc1ccc(-c2cc(C(=O)O)ccc2F)cc1C(=O)Nc1cc2ccc(Br)cc2cc1C(=O)Nc1ccc(F)c(C(F)(F)F)c1 [Example 8, 3′-((6-bromo-3-((4-fluoro-3-(trifluoromethyl)phenyl)carbamoyl)naphthalen-2-yl)carbamoyl)-6-fluoro-4′-methoxy-[1,1′-biphenyl]-3-carboxylic acid] | 2600 nM
10 | COc1ccc(-c2cc(C(O)C(=O)O)ccc2F)cc1C(=O)Nc1cc2ccccc2cc1C(=O)Nc1ccc(F)c(C(F)(F)F)c1 (single isomer, unassigned) [Example 4, 2-(6-fluoro-3′-((3-((4-fluoro-3-(trifluoromethyl)phenyl)carbamoyl)naphthalen-2-yl)carbamoyl)-4′-methoxy-[1,1′-biphenyl]-3-yl)-2-hydroxyacetic acid] | 490 nM
11 | COc1ccc(C#C[C@H](C)O)cc1C(=O)Nc1cc2ccccc2cc1C(=O)Nc1ccc(F)c(C(F)(F)F)c1 [Example 10, (S)—N-(4-fluoro-3-(trifluoromethyl)phenyl)-3-(5-(3-hydroxybut-1-yn-1-yl)-2-methoxybenzamido)-2-naphthamide] | 5000 nM
12 | COc1ccc(C2=NOC3CC(O)CC23)cc1C(=O)Nc1cc2ccccc2cc1C(=O)Nc1ccc(F)c(C(F)(F)F)c1 (single isomer, unassigned) [Example 15, N-(4-fluoro-3-(trifluoromethyl)phenyl)-3-(5-(5-hydroxy-3a,5,6,6a-tetrahydro-4H-cyclopenta[d]isoxazol-3-yl)-2-methoxybenzamido)-2-naphthamide] | 190 nM
13 | COc1ccc(-c2cc([C@H](OC(=O)NC3CCC3)C(F)(F)F)ccc2F)cc1C(=O)Nc1cc2ccccc2cc1C(=O)Nc1ccc(F)c(C(F)(F)F)c1 [Example 5, (S)-2,2,2-trifluoro-1-(6-fluoro-3′-((3-((4-fluoro-3-(trifluoromethyl)phenyl)carbamoyl)-naphthalen-2-yl)carbamoyl)-4′-methoxy-[1,1′-biphenyl]-3-yl)ethyl cyclobutylcarbamate] | 11 nM
14 | COc1ccc(-n2ncccc2=O)cc1C(=O)Nc1cc2ccccc2cc1C(=O)Nc1ccc(F)c(C(F)(F)F)c1 [Example 12, N-(4-fluoro-3-(trifluoromethyl)phenyl)-3-(2-methoxy-5-(6-oxopyridazin-1(6H)-yl)benzamido)-2-naphthamide] | 1400 nM
15 | COc1ccc(-c2cc(C(=O)O)ccc2F)cc1C(=O)Nc1cc2c(Br)cccc2cc1C(=O)Nc1ccc(F)c(C(F)(F)F)c1 [Example 6, 3′-((8-bromo-3-((4-fluoro-3-(trifluoromethyl)phenyl)carbamoyl)naphthalen-2-yl)carbamoyl)-6-fluoro-4′-methoxy-[1,1′-biphenyl]-3-carboxylic acid] | 1300 nM
